{
  "source": "ChEMBL document CHEMBL1201862",
  "about": "“PubChem BioAssay data set” (2004)",
  "key": {"[1]": {"target": "Small ubiquitin-related modifier 1 (Homo sapiens, UniProt P63165)", "assay": "SUMO1 protein interaction blockers, potency – biochemical, fluorescence polarization, uHTS hits, dose response (AID 624382)", "type": "functional", "details": "read-out: IC50_Mean"}, "Fatty acid synthase [2]": {"target": "T1, Fatty acid synthase (Homo sapiens, UniProt P49327)", "T1 sequence (P49327 whole entry)": "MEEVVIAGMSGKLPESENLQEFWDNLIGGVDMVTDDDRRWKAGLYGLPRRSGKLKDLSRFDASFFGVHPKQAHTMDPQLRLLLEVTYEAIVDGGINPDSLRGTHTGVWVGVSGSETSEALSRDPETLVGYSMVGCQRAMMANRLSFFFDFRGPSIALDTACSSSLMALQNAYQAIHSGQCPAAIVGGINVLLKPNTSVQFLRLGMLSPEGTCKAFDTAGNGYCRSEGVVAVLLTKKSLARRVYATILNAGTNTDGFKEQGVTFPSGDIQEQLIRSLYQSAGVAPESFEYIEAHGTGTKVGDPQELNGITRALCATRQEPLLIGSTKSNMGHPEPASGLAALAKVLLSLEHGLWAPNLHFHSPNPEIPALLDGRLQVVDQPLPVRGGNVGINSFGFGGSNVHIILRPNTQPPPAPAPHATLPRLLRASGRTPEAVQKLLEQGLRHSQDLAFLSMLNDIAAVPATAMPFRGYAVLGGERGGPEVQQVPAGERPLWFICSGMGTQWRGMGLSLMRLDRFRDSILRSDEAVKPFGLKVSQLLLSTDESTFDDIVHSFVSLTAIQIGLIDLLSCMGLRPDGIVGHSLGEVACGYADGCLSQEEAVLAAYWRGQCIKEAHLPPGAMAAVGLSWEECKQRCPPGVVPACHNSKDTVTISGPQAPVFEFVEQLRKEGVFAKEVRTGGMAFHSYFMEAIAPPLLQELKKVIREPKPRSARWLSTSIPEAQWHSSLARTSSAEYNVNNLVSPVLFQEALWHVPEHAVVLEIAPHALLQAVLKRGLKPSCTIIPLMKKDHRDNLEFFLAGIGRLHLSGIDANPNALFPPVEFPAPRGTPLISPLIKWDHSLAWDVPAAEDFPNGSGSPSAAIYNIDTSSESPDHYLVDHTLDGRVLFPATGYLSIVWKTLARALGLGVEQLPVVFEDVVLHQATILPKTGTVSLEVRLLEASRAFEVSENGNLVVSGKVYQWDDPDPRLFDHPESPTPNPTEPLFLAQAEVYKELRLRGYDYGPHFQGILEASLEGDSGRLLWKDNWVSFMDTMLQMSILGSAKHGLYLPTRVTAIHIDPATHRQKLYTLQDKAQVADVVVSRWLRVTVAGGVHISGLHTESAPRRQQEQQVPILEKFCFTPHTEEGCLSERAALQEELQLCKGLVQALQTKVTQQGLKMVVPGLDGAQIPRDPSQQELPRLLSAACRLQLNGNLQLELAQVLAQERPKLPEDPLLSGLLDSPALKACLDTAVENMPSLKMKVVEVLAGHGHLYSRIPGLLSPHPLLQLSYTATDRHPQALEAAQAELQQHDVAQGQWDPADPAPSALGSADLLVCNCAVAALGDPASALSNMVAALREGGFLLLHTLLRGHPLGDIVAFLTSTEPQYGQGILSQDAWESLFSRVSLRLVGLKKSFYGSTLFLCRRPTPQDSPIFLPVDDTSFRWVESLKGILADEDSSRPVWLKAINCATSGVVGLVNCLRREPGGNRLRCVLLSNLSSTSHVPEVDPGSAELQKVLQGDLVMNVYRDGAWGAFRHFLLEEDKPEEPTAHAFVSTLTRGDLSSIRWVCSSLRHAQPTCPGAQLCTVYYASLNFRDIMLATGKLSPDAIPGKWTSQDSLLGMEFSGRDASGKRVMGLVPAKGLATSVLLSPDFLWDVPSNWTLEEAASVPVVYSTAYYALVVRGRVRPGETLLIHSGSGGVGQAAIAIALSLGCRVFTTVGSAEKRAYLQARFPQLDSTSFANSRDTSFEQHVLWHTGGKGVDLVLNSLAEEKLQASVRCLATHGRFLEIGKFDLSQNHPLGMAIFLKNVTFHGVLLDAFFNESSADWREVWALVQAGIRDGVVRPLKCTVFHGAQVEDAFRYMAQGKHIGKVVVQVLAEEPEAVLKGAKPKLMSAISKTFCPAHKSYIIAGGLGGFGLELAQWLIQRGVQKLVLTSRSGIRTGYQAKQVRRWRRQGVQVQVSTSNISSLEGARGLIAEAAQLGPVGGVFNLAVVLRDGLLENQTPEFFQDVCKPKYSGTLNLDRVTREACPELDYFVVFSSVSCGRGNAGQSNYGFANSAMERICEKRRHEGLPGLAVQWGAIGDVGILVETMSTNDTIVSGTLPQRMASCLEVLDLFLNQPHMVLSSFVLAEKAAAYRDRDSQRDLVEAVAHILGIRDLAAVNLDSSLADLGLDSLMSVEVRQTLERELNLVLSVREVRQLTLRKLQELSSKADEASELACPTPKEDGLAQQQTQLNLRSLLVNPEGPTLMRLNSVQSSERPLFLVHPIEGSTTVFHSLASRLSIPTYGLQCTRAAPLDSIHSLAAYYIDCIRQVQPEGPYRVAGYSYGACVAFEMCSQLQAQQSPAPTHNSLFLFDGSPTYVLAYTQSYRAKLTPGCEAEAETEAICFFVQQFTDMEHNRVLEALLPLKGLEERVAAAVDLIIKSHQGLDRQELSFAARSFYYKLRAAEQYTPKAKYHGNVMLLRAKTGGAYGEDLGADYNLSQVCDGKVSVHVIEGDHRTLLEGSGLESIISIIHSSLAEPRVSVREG", "assay": "inhibition of human FAS-TE enzyme activity – biochemical, endpoint fluorescence intensity, uHTS hits, dose response (AID 624327);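 note: fluorescence from hydrolysis of an O-methyl fluorescein acyl ester substrate by the enzyme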", "type": "functional"}, "Protein Tat": {"target": "T2, Protein Tat (Human immunodeficiency virus type 1 group M subtype B (isolate HXB2)(HIV-1), UniProt P04608)", "T2 sequence (P04608 whole entry)": "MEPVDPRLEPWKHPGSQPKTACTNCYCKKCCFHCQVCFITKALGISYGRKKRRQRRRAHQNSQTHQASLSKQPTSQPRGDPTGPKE", "type": "functional"}, "Fatty acid synthase [3]": {"target": "T1, Fatty acid synthase", "assay": "inhibition of human FAS-TE enzyme activity – biochemical, kinetic fluorescence intensity, dose response (AID 624326);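 note: rate of fluorescence rise from hydrolysis of a fluorogenic O-methyl fluorescein ester substrate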", "type": "functional"}, "[4]": {"target": "Small ubiquitin-related modifier 2 (Homo sapiens, UniProt P61956)", "sequence (P61956 whole entry)": "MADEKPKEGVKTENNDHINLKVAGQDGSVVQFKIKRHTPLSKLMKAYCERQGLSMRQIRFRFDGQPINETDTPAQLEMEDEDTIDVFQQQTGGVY", "assay": "disruption of SUMO2 interaction with SIM peptide – biochemical, fluorescence polarization, uHTS hits, selectivity assay for SUMO1 interaction inhibitor project, dose response (AID 624385)", "type": "functional", "details": "read-out: IC50_Mean"}, "Beta-galactosidase": {"target": "Beta-galactosidase (Escherichia coli, UniProt Q8VNN2)", "sequence (Q8VNN2 whole entry)": "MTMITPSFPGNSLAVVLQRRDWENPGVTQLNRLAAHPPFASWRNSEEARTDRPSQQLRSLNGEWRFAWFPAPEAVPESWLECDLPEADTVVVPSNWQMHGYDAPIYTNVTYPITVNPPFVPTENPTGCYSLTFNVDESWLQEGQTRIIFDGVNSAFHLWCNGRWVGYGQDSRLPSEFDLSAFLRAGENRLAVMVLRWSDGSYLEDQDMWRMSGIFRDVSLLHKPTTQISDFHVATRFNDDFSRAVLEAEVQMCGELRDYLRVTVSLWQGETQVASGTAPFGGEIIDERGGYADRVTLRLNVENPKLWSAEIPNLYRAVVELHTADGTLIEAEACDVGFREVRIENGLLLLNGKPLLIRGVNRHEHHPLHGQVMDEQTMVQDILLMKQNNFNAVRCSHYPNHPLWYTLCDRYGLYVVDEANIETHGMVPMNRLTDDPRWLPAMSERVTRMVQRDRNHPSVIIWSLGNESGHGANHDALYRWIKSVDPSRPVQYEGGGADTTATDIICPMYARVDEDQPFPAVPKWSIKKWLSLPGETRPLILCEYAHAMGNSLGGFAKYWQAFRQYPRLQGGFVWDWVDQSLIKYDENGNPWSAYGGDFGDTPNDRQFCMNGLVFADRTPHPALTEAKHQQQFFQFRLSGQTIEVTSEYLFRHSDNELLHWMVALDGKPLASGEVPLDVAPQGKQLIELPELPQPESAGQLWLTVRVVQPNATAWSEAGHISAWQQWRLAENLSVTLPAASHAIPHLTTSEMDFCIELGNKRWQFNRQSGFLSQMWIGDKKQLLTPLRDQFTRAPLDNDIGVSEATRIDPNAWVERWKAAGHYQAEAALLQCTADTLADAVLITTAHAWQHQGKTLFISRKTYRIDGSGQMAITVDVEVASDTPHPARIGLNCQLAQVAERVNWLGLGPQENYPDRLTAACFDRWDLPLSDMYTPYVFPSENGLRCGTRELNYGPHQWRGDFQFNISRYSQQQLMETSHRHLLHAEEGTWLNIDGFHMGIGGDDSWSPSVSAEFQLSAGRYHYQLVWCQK", "assay": "detection-enzyme interference by beta-gal modulators – biochemical, E. coli enzyme, set 3, artefact control for CCR6 antagonist project, dose response (AID 504712)", "type": "functional"}, "Caspase-7": {"target": "Caspase-7 (Homo sapiens, UniProt P55210)", "assay": "caspase-7 enzyme inhibition, selectivity check – biochemical, DEVD-R110 fluorescence, cherry-pick, selectivity assay for caspase-6 inhibitor project, dose response (AID 743295)", "type": "functional"}, "Caspase-9": {"target": "Caspase-9 (Homo sapiens, UniProt P55211)", "assay": "inhibitors of purified CASP9 protease – biochemical, fluorescence, plate reader, cherry-picked samples, selectivity assay for caspase-6 inhibitor project, dose response (AID 743293)"}, "[5]": {"target": "Heat shock protein HSP 90-alpha (Homo sapiens, UniProt P07900)", "assay": "Luminescence-based dose response biochemical high throughput screening assay for inhibitors of the Heat Shock Protein 90 (HSP90). [Related pubchem assays: 1831 (Summary AID.), 1846 (Confirmation screen.), 1789 (Primary screen.)]"}, "BJ [6]": {"system": "BJ", "assay": "BJ-TERT fibroblast viability loss – cell-based, RAS-independent, luminescence, dose response (AID 1933)", "type": "functional", "details": "Homo sapiens"}, "[7]": {"target": "Peroxisome proliferator-activated receptor gamma/Nuclear receptor coactivator 1 (Homo sapiens, UniProt P37231)", "assay": "TR-FRET dose response biochemical High Throughput Screening assay for agonists of the steroid receptor coactivator 1 (SRC-1) recruitment by the peroxisome proliferator-activated receptor gamma (PPAR gamma): non-selective agonists. [Related pubchem assays (depositor defined):AID1300, AID1808, AID504735, AID631]", "type": "protein assay"}, "[8]": {"assay": "IC50 of Artemis nuclease activity blockers – biochemical, fluorescence intensity, dose response (AID 720701);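 note: Artemis endonuclease enzyme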", "type": "functional"}, "[9]": {"target": "Neuropeptide Y receptor type 2 (Homo sapiens, UniProt P49146)", "type": "functional, cell-based"}, "BJ [10]": {"system": "BJ", "assay": "BJ-TERT-LT-ST fibroblast viability loss – cell-based, RAS-independent, luminescence, dose response (AID 1935);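 note: BJ fibroblasts immortalized with TERT plus LT and ST oncogenes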", "type": "functional", "details": "Homo sapiens"}, "[11]": {"target": "Protein-tyrosine kinase 2-beta (Homo sapiens, UniProt Q14289)", "sequence (Q14289 whole entry)": "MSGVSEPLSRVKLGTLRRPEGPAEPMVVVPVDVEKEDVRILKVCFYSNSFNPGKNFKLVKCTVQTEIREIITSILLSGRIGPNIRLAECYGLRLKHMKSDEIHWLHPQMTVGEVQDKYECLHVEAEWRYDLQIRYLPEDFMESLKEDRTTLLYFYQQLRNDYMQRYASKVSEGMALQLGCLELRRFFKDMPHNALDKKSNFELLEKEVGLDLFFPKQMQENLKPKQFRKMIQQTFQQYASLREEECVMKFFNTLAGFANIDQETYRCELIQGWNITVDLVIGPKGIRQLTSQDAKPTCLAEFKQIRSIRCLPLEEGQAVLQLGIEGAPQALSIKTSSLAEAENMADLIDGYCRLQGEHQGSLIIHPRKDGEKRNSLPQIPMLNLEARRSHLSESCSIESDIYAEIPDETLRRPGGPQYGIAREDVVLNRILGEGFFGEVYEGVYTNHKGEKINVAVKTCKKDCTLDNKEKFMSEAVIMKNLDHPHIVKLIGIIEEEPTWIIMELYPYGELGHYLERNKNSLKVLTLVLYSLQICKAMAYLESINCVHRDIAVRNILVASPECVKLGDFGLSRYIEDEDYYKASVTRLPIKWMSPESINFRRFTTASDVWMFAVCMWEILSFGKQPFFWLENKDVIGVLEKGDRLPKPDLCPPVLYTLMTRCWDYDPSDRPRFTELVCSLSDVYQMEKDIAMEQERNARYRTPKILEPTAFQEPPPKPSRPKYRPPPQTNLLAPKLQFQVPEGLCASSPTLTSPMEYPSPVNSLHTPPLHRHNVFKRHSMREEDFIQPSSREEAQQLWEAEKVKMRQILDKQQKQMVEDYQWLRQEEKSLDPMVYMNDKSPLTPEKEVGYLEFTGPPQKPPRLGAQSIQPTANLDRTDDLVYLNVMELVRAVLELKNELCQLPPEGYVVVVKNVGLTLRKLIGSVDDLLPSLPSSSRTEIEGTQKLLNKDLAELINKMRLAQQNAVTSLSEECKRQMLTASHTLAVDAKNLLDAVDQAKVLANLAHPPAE"}, "[12]": {"target": "Dual specificity tyrosine-phosphorylation-regulated kinase 1A (Rattus norvegicus, UniProt Q63470)", "type": "biochemical, Homo sapiens"}, "[13]": {"target": "Mothers against decapentaplegic homolog 3 (Homo sapiens, UniProt P84022)", "sequence (P84022 whole entry)": "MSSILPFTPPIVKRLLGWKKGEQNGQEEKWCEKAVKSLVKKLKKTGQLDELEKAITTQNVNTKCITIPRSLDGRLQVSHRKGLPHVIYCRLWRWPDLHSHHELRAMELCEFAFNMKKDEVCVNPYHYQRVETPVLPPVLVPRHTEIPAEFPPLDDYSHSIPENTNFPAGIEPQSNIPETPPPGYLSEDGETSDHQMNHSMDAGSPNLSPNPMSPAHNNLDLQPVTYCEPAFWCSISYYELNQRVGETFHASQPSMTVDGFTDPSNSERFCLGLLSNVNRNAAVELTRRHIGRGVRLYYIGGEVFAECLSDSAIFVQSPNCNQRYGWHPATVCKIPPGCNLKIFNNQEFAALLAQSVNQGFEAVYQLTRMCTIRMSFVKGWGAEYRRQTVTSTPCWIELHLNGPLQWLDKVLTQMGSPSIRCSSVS", "assay": "inhibitors of SMAD-driven TGF-beta signaling – dose response (AID 715)", "type": "functional"}, "[14]": {"assay": "general mammalian cell viability loss – activator set, cherry-pick, cytotoxicity control for miR-122 modulator project, dose response (AID 720690)", "type": "functional, cell-based"}, "[15]": {"target": "Neuropeptide Y receptor type 1 (Homo sapiens, UniProt P25929)", "type": "functional"}, "[16]": {"target": "G-protein coupled receptor 55 (Homo sapiens, UniProt Q9Y2T6)", "assay": "inhibition of LPI-stimulated GPR55 beta-arrestin translocation – imaging, U2OS, beta-arrestin-GFP, LPI agonist, primary screen (AID 2013);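 note: antagonist potency measured as reduced agonist-driven arrestin aggregation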", "type": "functional"}, "[17]": {"target": "Histone-lysine N-methyltransferase NSD2 (Homo sapiens, UniProt O96028)", "type": "biochemical"}, "[18]": {"target": "T3, Mitochondrial peptide methionine sulfoxide reductase (Bos taurus, UniProt P54149)", "T3 sequence (P54149 whole entry)": "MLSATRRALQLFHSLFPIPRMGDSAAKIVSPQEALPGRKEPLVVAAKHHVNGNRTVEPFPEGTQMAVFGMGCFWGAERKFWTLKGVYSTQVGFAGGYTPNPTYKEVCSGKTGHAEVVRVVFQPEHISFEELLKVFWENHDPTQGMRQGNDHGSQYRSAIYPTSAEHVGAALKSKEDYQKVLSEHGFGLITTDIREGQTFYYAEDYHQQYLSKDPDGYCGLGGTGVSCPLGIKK", "assay": "Absorbance-based biochemical high throughput dose response assay for activators of Methionine sulfoxide reductase A (MsrA).", "type": "functional"}, "HEK293 [19]": {"system": "HEK293", "assay": "SAR Analysis of small molecule inhibitors of T-cell specific antigen receptor-induced NF-kB activation in a HEK-293T cell line using a luminescence assay - Set 2. [Related pubchem assays (depositor defined):AID435003, AID435012, AID489026]", "type": "functional, cell-based", "details": "Homo sapiens"}, "[20]": {"assay": "NIH-3T3 fibroblast cytotoxicity, dose response, cytotoxicity control, cell-based, fluorescence, Alamar Blue, secondary assay (AID 2327);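 note: NIH-3T3 mouse fibroblasts cultured with fluconazole at 8 µg/mL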", "type": "functional"}, "[21]": {"assay": "Trypanosoma cruzi growth suppression in host cells – NIH3T3 host cells, beta-gal luminescence, confirmation (AID 2044);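 note: intracellular parasites grown in NIH/3T3 mouse fibroblasts as host cells; luminescent beta-galactosidase reporter signal from transgenic T. cruzi replicating inside host cells; inhibitors lower the luminescence signal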", "type": "functional, cell-based"}, "Jurkat": {"system": "Jurkat", "assay": "SAR Analysis of small molecule inhibitors of T-cell specific antigen receptor-induced NF-kB activation in a Jurkat cell line using a luminescence assay - Set 2. [Related pubchem assays (depositor defined):AID435003, AID435012, AID465]", "type": "functional, cell-based", "details": "Homo sapiens"}, "[22]": {"assay": "MIN6 cell viability loss – mouse insulinoma, cytotoxicity control, dose response (AID 2122);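 note: confirmatory high-throughput counterscreen run to flag cytotoxic compounds; mouse MIN-6 beta cells carrying an insulin promoter eGFP reporter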", "type": "functional"}, "HEK293 [23]": {"system": "HEK293", "assay": "SAR Analysis of small molecule inhibitors of T-cell specific antigen receptor-induced NF-kB activation in a HEK-293T cell line using a luminescence assay. [Related pubchem assays (depositor defined):AID435003, AID435012, AID489026]", "type": "functional, cell-based", "details": "Homo sapiens"}, "[24]": {"target": "ATP-dependent molecular chaperone HSP82 (Candida albicans (strain WO-1) (Yeast), UniProt C4YTQ8)", "assay": "steroid-induced GRE reporter decrease in yeast – S. cerevisiae, luminescence, Hsp90 inhibitor project, dose response (AID 2400);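 note: beta-galactosidase luminescence from glucocorticoid response element reporter as proxy for Hsp90 function; inhibitor potency where signal loss means Hsp90 inhibition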", "type": "functional, cell-based"}, "[25]": {"assay": "Counterscreen for AddAB inhibitors: absorbance-based bacterial cell-based high throughput dose response assay for inhibitors of bacterial viability. [Related pubchem assays (depositor defined):AID435030, AID449728, AID449731, AID488942, AID488955, AID488956]", "type": "functional"}, "HEK293 [26]": {"system": "HEK293", "assay": "HEK293T cell viability loss, resazurin readout – resazurin fluorescence, cytotoxicity control for NF-kB activator project, SAR follow-up (AID 493251)", "type": "functional, cell-based"}, "cells": {"assay": "cells", "type": "functional, cell-based"}},
  "note": "The source made the active and inactive calls.",
  "data": [
    {"smiles": "COc1cc(-c2ccc(Nc3ccccc3C(=O)O)c(OC)c2)ccc1Nc1ccccc1C(=O)O", "values": [
      {"measurement": "IC50", "setting": "[1]", "value": "0.647 µM (active)"},
      {"measurement": "IC50", "setting": "Fatty acid synthase [2]", "value": "7.61 µM (active)"},
      {"measurement": "IC50", "setting": "Protein Tat", "value": "12.7 µM (inconclusive)"},
      {"measurement": "IC50", "setting": "Fatty acid synthase [3]", "value": "6.68 µM (active)"},
      {"measurement": "IC50", "setting": "[4]", "value": "2.34 µM (active)"}
    ]},
    {"smiles": "COC(CNC(=O)c1ccc2c3c(onc13)-c1ccccc1C2=O)OC", "values": [
      {"measurement": "IC50", "setting": "Beta-galactosidase", "value": "> 66.6 µM (inactive)"}
    ]},
    {"smiles": "COc1ccc(OC)c(Nc2cc3ccccc3c(O)n2)c1", "values": [
      {"measurement": "AC50", "setting": "Caspase-7", "value": "5.9 µM (active)"},
      {"measurement": "AC50", "setting": "Caspase-9", "value": "10.1 µM (active)"}
    ]},
    {"smiles": "O=C(O)c1ccc(NC2=C/C(=N/S(=O)(=O)c3ccccc3)c3ccccc3C2=O)cc1", "values": [
      {"measurement": "IC50", "setting": "[5]", "value": "0.967 µM (active)"}
    ]},
    {"smiles": "Nc1ccc2c(c1)C(=O)C(=O)c1ccccc1-2", "values": [
      {"measurement": "EC50", "setting": "BJ [6]", "value": "2.58 µM (inconclusive)"},
      {"measurement": "EC50", "setting": "[7]", "value": "12.3 µM (inactive)"},
      {"measurement": "IC50", "setting": "[8]", "value": "< 0.63 µM (active)"},
      {"measurement": "IC50", "setting": "[9]", "value": "4.25 µM (active)"},
      {"measurement": "EC50", "setting": "BJ [10]", "value": "3.12 µM (inconclusive)"},
      {"measurement": "IC50", "setting": "[11]", "value": "> 69.5 µM (not active)"},
      {"measurement": "AC50", "setting": "[12]", "value": "0.547 µM (active)"},
      {"measurement": "IC50", "setting": "[13]", "value": "9.89 µM (active)"},
      {"measurement": "AC50", "setting": "[14]", "value": "6.54 µM (active)"},
      {"measurement": "IC50", "setting": "[15]", "value": "4.54 µM (active)"},
      {"measurement": "IC50", "setting": "[16]", "value": "1.36 µM (active)"},
      {"measurement": "AC50", "setting": "[17]", "value": "0.273 µM (active)"},
      {"measurement": "EC50", "setting": "[18]", "value": "9.09 µM (active)"}
    ]},
    {"smiles": "CCCC(=O)NC(c1ccccc1OC)c1ccc2cccnc2c1O", "note": "(stereo not drawn)", "values": [
      {"measurement": "IC50", "setting": "HEK293 [19]", "value": "3.97 µM (active)"},
      {"measurement": "EC50", "setting": "[20]", "value": "28.7 µM (active)"},
      {"measurement": "EC50", "setting": "[21]", "value": "0.532 µM (active)"},
      {"measurement": "IC50", "setting": "Jurkat", "value": "5.16 µM (active)"},
      {"measurement": "IC50", "setting": "[22]", "value": "1.91 µM (active)"},
      {"measurement": "IC50", "setting": "HEK293 [23]", "value": "12.5 µM (active)"},
      {"measurement": "EC50", "setting": "[24]", "value": "25.9 µM (active)"},
      {"measurement": "IC50", "setting": "[25]", "value": "> 119 µM (inactive)"},
      {"measurement": "IC50", "setting": "HEK293 [26]; Homo sapiens, HEK293", "value": "29.6 µM (inactive)"},
      {"measurement": "IC50", "setting": "HEK293 [26]; hek293", "value": "41.2 µM (inactive)"},
      {"measurement": "EC50", "setting": "cells", "value": "> 350 µM (not active)"}
    ]}
  ]
}
